Assay results taken from patent US20180099931A1 (AbbVie S.à.r.l., priority 2016, published 2018).
Read-outs that look alike come from different tables or passages of the source.

Molecular target: T1, F508delCFTR (Homo sapiens, UniProt P13569, DEL508-508)
T1 construct: expressed in transfected cells; host or cells: CFBE41o- human lung-derived epithelial cells (CFBE4lo-F508delCFTR-HRP), doxycycline-inducible
Assay: Cell Surface Expression-Horse Radish Peroxidase (CSE-HRP) Assay;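 on Maximum % activity (with co-corrector): co-corrector and positive control are both the same reference corrector at 2 µM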;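 on Maximum % activity (without co-corrector): percent of the 2 µM on-plate positive control corrector response above DMSO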
Format: cell-based
Conditions: for Maximum % activity (with co-corrector) / Emax: maximum at any tested concentration, normalized to on-plate positive control; for Emax: read-out: Maximum % activity (without co-corrector)

[1] = CSE-HRP, test compound without co-corrector, read-out: EC50 (without co-corrector)
[2] = CSE-HRP, with co-corrector (2 μM of 3-[(2R,4R)-4-({[1-(2,2-difluoro-1,3-benzodioxol-5-yl)cyclopropyl]carbonyl}amino)-7-methoxy-3,4-dihydro-2H-chromen-2-yl]benzoic acid), read-out: EC50 (with co-corrector)
[3] = CSE-HRP, with co-corrector (2 μM)
[4] = test compound without co-corrector
[5] = test compound without co-corrector, read-out: EC50 (without co-corrector)
[6] = with co-corrector (2 μM of 3-[(2R,4R)-4-({[1-(2,2-difluoro-1,3-benzodioxol-5-yl)cyclopropyl]carbonyl}amino)-7-methoxy-3,4-dihydro-2H-chromen-2-yl]benzoic acid)
[7] = with co-corrector (2 μM of 3-[(2R,4R)-4-({[1-(2,2-difluoro-1,3-benzodioxol-5-yl)cyclopropyl]carbonyl}amino)-7-methoxy-3,4-dihydro-2H-chromen-2-yl]benzoic acid), read-out: EC50 (with co-corrector)

T1 sequence (P13569 with tags, fused parts or gaps DEL508-508): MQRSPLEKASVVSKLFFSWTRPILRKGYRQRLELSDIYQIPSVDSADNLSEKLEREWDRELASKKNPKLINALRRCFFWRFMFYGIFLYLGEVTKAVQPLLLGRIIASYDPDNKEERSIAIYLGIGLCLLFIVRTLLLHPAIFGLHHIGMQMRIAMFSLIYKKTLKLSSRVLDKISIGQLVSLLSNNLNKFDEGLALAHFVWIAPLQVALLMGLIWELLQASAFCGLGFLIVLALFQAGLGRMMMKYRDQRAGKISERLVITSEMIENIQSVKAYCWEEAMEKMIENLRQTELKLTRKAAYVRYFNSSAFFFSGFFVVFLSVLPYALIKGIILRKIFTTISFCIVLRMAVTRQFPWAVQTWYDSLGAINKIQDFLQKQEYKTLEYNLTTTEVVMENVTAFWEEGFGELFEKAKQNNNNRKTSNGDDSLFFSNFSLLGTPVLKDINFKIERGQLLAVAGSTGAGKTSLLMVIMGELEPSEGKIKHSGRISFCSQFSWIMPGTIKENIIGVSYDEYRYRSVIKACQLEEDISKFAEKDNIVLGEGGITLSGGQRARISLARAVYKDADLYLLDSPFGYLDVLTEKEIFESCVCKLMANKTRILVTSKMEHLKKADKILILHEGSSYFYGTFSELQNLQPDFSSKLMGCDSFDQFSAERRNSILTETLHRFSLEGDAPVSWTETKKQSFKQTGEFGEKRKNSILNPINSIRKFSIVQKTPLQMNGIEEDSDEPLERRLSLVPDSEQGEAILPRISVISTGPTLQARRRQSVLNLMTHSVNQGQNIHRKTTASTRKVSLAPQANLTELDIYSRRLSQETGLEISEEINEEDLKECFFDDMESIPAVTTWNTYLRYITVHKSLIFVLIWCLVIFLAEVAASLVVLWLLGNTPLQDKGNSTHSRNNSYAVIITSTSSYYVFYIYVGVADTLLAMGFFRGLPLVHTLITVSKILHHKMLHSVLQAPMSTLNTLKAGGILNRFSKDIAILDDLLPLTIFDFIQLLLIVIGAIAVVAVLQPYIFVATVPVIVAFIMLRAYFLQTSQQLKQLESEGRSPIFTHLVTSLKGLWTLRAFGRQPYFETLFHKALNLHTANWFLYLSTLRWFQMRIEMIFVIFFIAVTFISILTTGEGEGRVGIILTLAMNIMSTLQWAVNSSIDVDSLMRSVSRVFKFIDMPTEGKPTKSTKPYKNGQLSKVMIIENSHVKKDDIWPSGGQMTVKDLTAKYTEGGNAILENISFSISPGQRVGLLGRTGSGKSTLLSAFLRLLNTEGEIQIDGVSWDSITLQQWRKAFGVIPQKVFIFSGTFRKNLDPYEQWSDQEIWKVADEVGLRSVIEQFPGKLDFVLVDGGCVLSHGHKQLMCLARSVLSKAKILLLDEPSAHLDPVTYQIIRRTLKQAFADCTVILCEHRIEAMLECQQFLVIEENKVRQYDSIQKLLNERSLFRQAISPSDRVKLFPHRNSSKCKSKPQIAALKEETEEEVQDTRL

Row | EC50 [1] [µM] | EC50 [2] [µM] | Maximum % activity (with co-corrector) [3] | Emax (CSE-HRP, without co-corrector) [%] | Emax [4] [%] | EC50 [5] [µM] | Maximum % activity (with co-corrector) [6] | EC50 [7] [µM] | Maximum % activity (with co-corrector) (with co-corrector (2 μM)) | Emax (without co-corrector) [%] | Compound
1 | 1 to 10 | 1 to 10 | +++ (≥350) | 100 to 200 |  |  |  |  |  |  | COc1ccc(-c2cccnc2OC)cc1CN[C@H]1[C@H](C(C)(C)C)[C@@H](C(=O)O)N(C(=O)C2CCCCC2)[C@H]1c1ccccc1 [II-250]
2 |  |  |  |  | > 200 | 1 to 10 | +++ (≥350) | 1 to 10 |  |  | COc1cc(C(F)(F)F)ccc1CN[C@H]1[C@H](C(C)(C)C)[C@@H](C(=O)O)N(C(=O)[C@H]2CCC[C@H](OC)C2)[C@H]1c1ccccc1 [II-571]
3 |  |  |  |  | < 100 | > 10 |  | > 10 | + (<150) |  | COc1ccc(C(C)(C)C)cc1CN[C@H]1[C@H](C(C)(C)C)[C@@H](C(=O)O)N(C(=O)C2CCCCC2)[C@H]1c1cccn(C)c1=O (racemic) [Example III-228, rac-(2S,3S,4S,5S)-3-tert-butyl-4-{[(5-tert-butyl-2-methoxyphenyl)methyl]amino}-1-(cyclohexanecarbonyl)-5-(1-methyl-2-oxo-1,2-dihydropyridin-3-yl)pyrrolidine-2-carboxylic acid]
4 | 1 to 10 | 1 to 10 | ++ (≥150 and <350) | < 100 |  |  |  |  |  |  | COc1ccc(C#N)cc1CN[C@@H]1[C@@H](C(C)(C)C)[C@H](C(=O)O)N(C(=O)C2CCCCC2)[C@@H]1c1ccccc1 (racemic) [II-71]
5 |  |  |  |  | < 100 | > 10 |  | 1 to 10 | ++ (≥150 and <350) |  | CCOc1cc(N[C@H]2[C@H](C(C)(C)C)[C@@H](C(=O)O)N(C(=O)C3CCCCC3)[C@H]2c2ccccc2)nc2ccccc12 [III-152]
6 | 1 to 10 | 1 to 10 | +++ (≥350) | < 100 |  |  |  |  |  |  | COc1ccc(-c2cccnc2C)cc1CN[C@H]1[C@H](C(C)(C)C)[C@@H](C(=O)O)N(C(=O)C2CCCCC2)[C@H]1c1ccccc1 [II-288]
7 | 1 to 10 | 1 to 10 | +++ (≥350) | > 200 |  |  |  |  |  |  | COc1ccc(C(C)(C)C)cc1CN[C@H]1[C@H](C(C)(C)C)[C@@H](C(=O)O)N(C(=O)C(OC)C(C)C)[C@H]1c1ccccc1 (some centres unmarked) [II-267]
8 | 1 to 10 | < 1 | +++ (≥350) | > 200 |  |  |  |  |  |  | COc1ncc(C(C)C)cc1CN[C@H]1[C@H](C(C)(C)C)[C@@H](C(=O)O)N(C(=O)C2CCCCC2)[C@H]1c1ccccc1 [II-157]
9 |  |  |  |  | > 200 | 1 to 10 | +++ (≥350) | 1 to 10 |  |  | COC(=O)N1[C@H](C(=O)O)[C@@H](C(C)(C)C)[C@H](NCc2cc(C(C)(C)C)ccc2OC)[C@@H]1c1ccccc1 [II-388]
10 |  |  |  |  | 100 to 200 | 1 to 10 | +++ (≥350) | 1 to 10 |  |  | CCn1nc(C)c(C(=O)N2[C@H](C(=O)O)[C@@H](C(C)(C)C)[C@H](NCc3cc(C(C)(C)C)ccc3OC)[C@@H]2c2ccccc2)c1C [II-362]
11 |  |  |  |  | > 200 | 1 to 10 | +++ (≥350) | 1 to 10 |  |  | COc1ccc(C(C)(C)C)cc1CN[C@H]1[C@H](C(C)(C)C)[C@@H](C(=O)O)N(C(=O)[C@H]2C[C@@H]3CC[C@H]2O3)[C@H]1c1ccccc1 [II-543]
12 |  |  |  |  | 100 to 200 | 1 to 10 | +++ (≥350) | < 1 |  |  | COc1cc(C(F)(F)F)ccc1CN[C@H]1[C@H](C23CC(C2)C3)[C@@H](C(=O)O)N(C(=O)C2CCCCC2)[C@H]1c1ccccc1 [II-470]
13 |  |  |  |  | > 200 | 1 to 10 | +++ (≥350) | < 1 |  |  | COc1ccc(C(C)(C)C)cc1CN[C@H]1[C@H](C(C)(C)C)[C@@H](C(=O)O)N(C(=O)[C@@H]2CCCCO2)[C@H]1c1ccccc1F [II-460]
14 |  |  |  |  | > 200 | < 1 |  | < 1 | +++ (≥350) |  | COc1ccc(CC2CCCCC2)cc1CN[C@H]1[C@H](C(C)(C)C)[C@@H](C(=O)O)N(C(=O)C2CCCCC2)[C@H]1c1ccccc1 [III-169]
15 | 1 to 10 | 1 to 10 | +++ (≥350) | 100 to 200 |  |  |  |  |  |  | COc1ccc(Br)cc1CN[C@H]1[C@H](C(C)(C)C)[C@@H](C(=O)O)N(C(=O)C2CCCCC2)[C@H]1c1ccccc1F [II-262]
16 | 1 to 10 | 1 to 10 | +++ (≥350) | 100 to 200 |  |  |  |  |  |  | COc1ccc(C(C)(C)C)cc1CN[C@H]1[C@H](C(C)(C)C)[C@@H](C(=O)O)N(C(=O)[C@H](C)OC)[C@H]1c1ccccc1 [II-308]
17 | 1 to 10 | 1 to 10 | +++ (≥350) | < 100 |  |  |  |  |  |  | COc1cc(C#N)ccc1CN[C@@H]1[C@@H](C(C)(C)C)[C@H](C(=O)O)N(C(=O)C2CCCCC2)[C@@H]1c1ccccc1 (racemic) [II-74]

Further lines, the compound ahead of its results:

Row | Compound | EC50 [1] [µM] | EC50 [2] [µM] | Maximum % activity (with co-corrector) [3] | Emax (CSE-HRP, without co-corrector) [%] | Emax [4] [%] | EC50 [5] [µM] | Maximum % activity (with co-corrector) [6] | EC50 [7] [µM] | Maximum % activity (with co-corrector) (with co-corrector (2 μM)) | Emax (without co-corrector) [%]
18 | COc1ccc(C(C)(C)C)cc1CN[C@H]1[C@H](C23CC(C2)C3)[C@@H](C(=O)O)N(C(=O)OC(C)C)[C@H]1c1cccnc1OC [Example 76, (2S,3S,4S,5S)-3-(bicyclo[1.1.1]pentan-1-yl)-4-{[(5-tert-butyl-2-methoxyphenyl)methyl]amino}-5-(2-methoxypyridin-3-yl)-1-{[(propan-2-yl)oxy]carbonyl}pyrrolidine-2-carboxylic acid] |  |  |  |  |  | 1 to 10 |  | 1 to 10 | +++ (≥350) | 100 to 200
19 | COc1ccc(C(F)(F)F)cc1OCCN[C@H]1[C@H](C(C)(C)C)[C@@H](C(=O)O)N(C(=O)OC(C)C)[C@H]1c1cccnc1OC(C)C [Example I-309] | 1 to 10 | 1 to 10 | +++ (≥350) | 100 to 200 |  |  |  |  |  | 
20 | COc1ccc(C(C)(C)C)cc1CN[C@H]1[C@H](C(C)(C)C)[C@@H](C(=O)O)N(C(=O)CN2CCCCCC2)[C@H]1c1ccccc1 [Example I-100] |  |  |  |  |  | 1 to 10 |  | 1 to 10 | +++ (≥350) | > 200
21 | COc1ccc(C(C)(C)C)cc1CN[C@H]1[C@H](C(C)(C)C)[C@@H](C(=O)O)N(C(=O)[C@H]2CCCC(F)(F)C2)[C@H]1c1ccccc1 [Example 30, (2S,3S,4S,5S)-3-tert-butyl-4-{[(5-tert-butyl-2-methoxyphenyl)methyl]amino}-1-[(1S)-3,3-difluorocyclohexane-1-carbonyl]-5-phenylpyrrolidine-2-carboxylic acid] |  |  |  |  |  | 1 to 10 |  | 1 to 10 | +++ (≥350) | > 200
22 | COc1ccc(C(C)(C)C)cc1CN[C@H]1[C@H](C(C)(C)C)[C@@H](C(=O)O)N(C(=O)OC(C)C)[C@H]1c1ccccc1F [Example I-221] |  |  |  |  |  | 1 to 10 |  | 1 to 10 | +++ (≥350) | > 200
23 | COc1ccc(C(C)(C)C)cc1CN[C@H]1[C@H](C(C)(C)C)[C@@H](C(=O)O)N(C(=O)OC2CCCC2)[C@H]1c1ccccc1 [Example I-119] |  |  |  |  |  | 1 to 10 |  | < 1 | +++ (≥350) | > 200
24 | COc1ccc(C2(C#N)CCC2)cc1CN[C@H]1[C@H](C(C)(C)C)[C@@H](C(=O)O)N(C(=O)C2CCCCC2)[C@H]1c1ccccc1 [Example I-155] |  |  |  |  |  | 1 to 10 |  | 1 to 10 | +++ (≥350) | 100 to 200
25 | COc1ccc(C(C)(C)C)cc1CN[C@H]1[C@H](C(C)(C)C)[C@@H](C(=O)O)N(C(=O)C2CCCCC2)[C@H]1c1ccccc1C(C)C [Example I-185] |  |  |  |  |  | < 1 |  | < 1 | +++ (≥350) | > 200
26 | COc1ccc(C(C)(C)C)cc1CN[C@H]1[C@H](C(C)(C)C)[C@@H](C(=O)O)N(C(=O)C(OC)C2CC2)[C@H]1c1ccccc1 (single isomer, unassigned) [Example I-96] |  |  |  |  |  | 1 to 10 |  |  | +++ (≥350) | 
27 | COc1ncc(C(F)(F)F)cc1CN[C@H]1[C@H](C(C)(C)C)[C@@H](C(=O)O)N(C(=O)[C@@H]2CCCO2)[C@H]1c1ccccc1C(C)C [Example 95, (2S,3S,4S,5S)-3-tert-butyl-4-({[2-methoxy-5-(trifluoromethyl)pyridin-3-yl]methyl}amino)-1-[(2S)-oxolane-2-carbonyl]-5-[2-(propan-2-yl)phenyl]pyrrolidine-2-carboxylic acid] |  |  |  |  |  | < 1 |  | < 1 | +++ (≥350) | > 200
28 | CC(C)(C)[C@H]1[C@H](NCC2(c3cccc(Cl)c3)CCOCC2)[C@H](c2ccccc2)N(C(=O)C2CCCCC2)[C@@H]1C(=O)O [Example 63, (2S,3S,4S,5S)-3-tert-butyl-4-({[4-(3-chlorophenyl)oxan-4-yl]methyl}amino)-1-(cyclohexanecarbonyl)-5-phenylpyrrolidine-2-carboxylic acid] |  |  |  |  |  | 1 to 10 |  | 1 to 10 | +++ (≥350) | < 100
